Test results taken from publication PMC11963559, “Identification of novel thiazole derivatives as flaviviral protease inhibitors effective against Dengue (DENV2) and Japanese encephalitis viruses” (Antimicrobial Agents and Chemotherapy, 2025).

Experiments:
[1] = MTT cytotoxicity assay in SH-SY5Y cells; assay type: cell-based; conditions: human
Description: We further studied the effect of the compounds on JEV replication in the human neuroblastoma SH-SY5Y cells, which represents a suitable model cell line for a neuropathic virus, like JEV. At first, the cytotoxicity was studied for both compounds in SH-SY5Y cells. […] Then, the SH-SY5Y cells were infected with the JEV virus in the absence or presence of 3aq or 3au (10 µM), and viral genomic RNA copies were quantified using qRT-PCR at 24, 48, and 72 hpi, as described previously.
The MTT assay was performed to determine cellular metabolic activity as an indicator of cell viability, proliferation, and cytotoxicity. Thus, to determine whether these compounds had any toxic effects on cellular viability, an MTT assay was performed following the protocol described previously by Mosmann (1983) ([55], [56]). Briefly, BHK-21 and SH-SHY5Y cells were seeded into 96-well plates at a density of 20,000 cells/well. Almost 16–18 h later, the cells were treated with different concentrations of the compounds (3au and 3aq) for 24 h at 37 °C in 5% CO2. […] The absorbance of the solution in a 96-well plate was measured at 595 nm using a microplate reader (Epoch 2; BioTek Instruments). Each experiment was performed in triplicate, and the percentage of cell viability was determined as the ratio of the absorbance values of the experimental samples to the control solvent (DMSO) on the same plate.

DENV2 NS2B–NS3 protease = biological target: T1, DENV2 NS2B–NS3 protease (Dengue virus type 2, UniProt P14340); assay: NS2B–NS3 protease steady-state kinetics and mode of inhibition; assay type: biochemical; conditions: for mode of inhibition: both Km and Vmax reduced, Lineweaver–Burk plot; for Vmax: increasing substrate concentrations
T1 construct: Activity of recombinant dengue 2 virus NS3 protease in the presence of a truncated NS2B co-factor; The N-terminal domain of NS3 contains a highly conserved protease-active core; made in house; host or cells: Escherichia coli BL21(DE3)
Description: As 3au and 3aq compounds emerged as the two most promising candidates, we characterized their NS2B–NS3 inhibitory activity in greater detail using the previously mentioned DENV NS2B–NS3 protease assay (Fig. 3D) ([39], [41]). Experiments were performed to determine the kinetic parameters, inhibition constants, and inhibition mechanisms of these compounds. Enzymatic activity and corresponding reaction velocity were measured with various substrate concentrations either in presence of the vehicle control or two different concentrations of compounds. Several inhibitory mechanisms, including competitive, uncompetitive, and mixed/non-competitive mechanisms, were explored for each compound. […] The double reciprocal plot (Lineweaver–Burk plot) ( Fig. 5C and D) also validates the mode of enzymatic inhibition against DENV NS2B–NS3 protease.
The selected compounds were analyzed using in vitro protease assays performed in black 96-well plates. Standard reaction mixtures (60 µL) containing 50 mM Tris·HCl (pH 8.5), 1 mM CHAPS, 20% glycerol, 10 nM DENV2 NS2B–NS3 protease, 10 µM inhibitor (dissolved in DMSO) or DMSO, and 10.0 µM tetra-peptide substrate trifluoroacetate-Nle-Lys-Arg-Arg-AMC (ALFA Chemicals) were added to the reaction mixture and incubated for 1 h at room temperature. All assays were performed in triplicate. The release of free AMC was measured using a Varioskan LUX multimode microplate reader (Thermo Fisher Scientific) at excitation and emission wavelengths of 380 and 460 nm, respectively. Control fluorescence values obtained in the absence of inhibitors were considered 100%, and those obtained in the presence of inhibitors were calculated as the percentage of inhibition of the control using Microsoft Excel and plotted using Origin Pro 2023b. The background AMC in the absence of protease was subtracted before data analysis. Further, protease assay was done using different concentration of the compounds (1, 10, and 100 µM) to evaluate the IC50 for the in vitro assay. IC50 curves were fitted and determined by fitting the nonlinear equation in Origin2023b software. A similar approach was used to analyze the enzymatic kinetics of protease inhibition. The reaction progress was monitored by the release of free aminomethylcoumarin (AMC), as previously described. The substrate was incubated with or without the inhibitor in the aforementioned reaction buffer in the presence of varying concentrations of the substrate. The reactions were initiated by the addition of the NS2B–NS3 protease. Protease activity was monitored for 1 h based on the initial rate of increase in fluorescence intensity at 460 nm, with an excitation wavelength of 380 nm. The results were analyzed using Origin Pro 2023b and the Michaelis–Menten equation to obtain the apparent Michaelis–Menten constants and maximal velocities. All assays were performed in triplicate. For each tested compound, […] different concentrations of the inhibitor (0, 10, and 25 µM) were used at various concentrations (0–250 μM) of the substrate. The mechanism of inhibition was determined by observing the deviations in the apparent Km and Vmax values.

T1 sequence (P14340 1476-1653): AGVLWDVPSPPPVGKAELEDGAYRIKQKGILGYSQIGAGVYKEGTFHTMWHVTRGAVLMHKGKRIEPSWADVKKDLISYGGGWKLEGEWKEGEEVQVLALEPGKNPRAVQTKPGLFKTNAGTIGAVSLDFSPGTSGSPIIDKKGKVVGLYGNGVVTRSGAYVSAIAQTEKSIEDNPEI
T1 sequence (P14340 1398-1437): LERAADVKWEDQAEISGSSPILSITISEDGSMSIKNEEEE

| SMILES | CC50 at 24 h [1] [µM] | mode of inhibition (DENV2 NS2B–NS3 protease) | Vmax (DENV2 NS2B–NS3 protease; inhibitor 10 μM) | Vmax (DENV2 NS2B–NS3 protease; inhibitor 25 μM) |
| --- | --- | --- | --- | --- |
| COc1ccc(-c2csc(N/N=C(\C)c3cc(O)cc(O)c3)n2)cc1 [3au] | 49.4 ± 3.65 | uncompetitive | 38.9 ± 1.9 | 21.4 ± 0.7 |
| COc1ccc(-c2csc(N/N=C(\C)c3ccc(O)cc3)n2)cc1 [3aq] | 58.3 ± 4.31 | uncompetitive | 52.1 ± 3.3 | 18.4 ± 0.9 |
